# From PMC2763540 (Chemistry & biology, 2009)
# pEC50, pIC50: −log10 of the molar value. Values joined by “and” are separate entries in the source; they are usually repeats but may differ in a detail not shown here. Equal entries are not always repeated. “Also recorded” adds a separate entry of the source. Where two headings read alike, the source gives them in different places.
# Assays:
# [1] = tested on: neurotoxin site 5 on VGSCs; details: cited from earlier work
# [2] = tested on: neurotoxin site 2 on VGSCs; details: cited from earlier work
# [3] = tested on: hoiamide A-induced elevation of neuronal [Na+]i in neocortical neurons; assay type: cell-based, mouse (Swiss-Webster)
# [4] = tested on: voltage-gated sodium channels; assay type: cell-based, mouse (Swiss-Webster)
# [5] = tested on: voltage-gated sodium channels; details: cited from earlier work
# [6] = tested on: neurotoxin site 2 on VGSCs; assay type: binding, mouse (Swiss-Webster)
# [7] = tested on: neurotoxin site 2 on VGSCs; assay type: cell-based, mouse (Swiss-Webster)
# [8] = tested on: mouse neocortical neurons
# [9] = tested on: cancer cells
compound,measurement,setting,value
C=CC/C=C\C=C/[C@H]1O[C@H]2C[C@H]3O[C@H]4CC[C@H]5O[C@H]6C[C@@]7(C)O[C@@]8(C)[C@@H](O)C[C@H](CCCO)O[C@@H]8C[C@@H]7O[C@@H]6C[C@@H]5O[C@]4(C)C[C@]3(C)O[C@@H]2C=C[C@]1(C)O [gambierol],effect on PbTx-1 induced elevation of neuronal [Na+]i,[1],inhibited the full agonist PbTx-1 induced elevation of neuronal [Na^+]i
same,type of agonism at neurotoxin site 5,[1],low efficacy partial agonist at neurotoxin site 5
C=C(C=O)C[C@@H]1C[C@H](O)[C@]2(C)O[C@@H]3C[C@@H]4O[C@@H]5C[C@]6(C)O[C@]7(C)CC[C@@H]8O[C@@H]9C[C@]%10(C)O[C@@H]%11C(C)=CC(=O)O[C@H]%11C[C@H]%10O[C@H]9C[C@@H](C)[C@H]8O[C@H]7C[C@H]6O[C@H]5C/C=C\[C@H]4O[C@H]3C[C@H]2O1 [brevetoxin],effect on [3H]BTX specific binding (allosteric),[2],dramatically increased
C[C@]12N[C@H](Cc3ccccc31)c1ccccc12 [MK-801],effect on hoiamide A-induced elevation of neuronal [Na+]i,[3],"partial, but statistically significant, decrease"
batrachotoxin,elevation of neuronal [Na+]i / sodium influx,[4],rapid and concentration-dependent elevation of neuronal [Na^+]i
same,"maximum response, elevation of neuronal [Na+]i",[4],greater than 60 mM
same,pEC50,[4]; read-out: EC50 for batrachotoxin-induced elevation of neuronal [Na+]i,7.94
same,type of agonism at neurotoxin site 2,[5],full agonist at neurotoxin site 2
brevetoxin 3 [PbTx-3],sodium influx when given alone,[4],inactive alone
same,effect on maximum response of hoiamide A-induced sodium influx,[3],significant increase in the maximum response; also recorded: enhance hoiamide A-induced elevation of neuronal [Na^+]i
"NC1=N[C@H](O)[C@H]2[C@H]3O[C@]4(O)O[C@@H]([C@@H](O)[C@@]2(N1)[C@@H]4O)[C@]3(O)CO [TTX, tetrodotoxin]",effect on hoiamide A-induced elevation of neuronal [Na+]i,[3],eliminated the hoiamide A-induced elevation of neuronal [Na^+]i; also recorded: inhibition of hoiamide A-induced elevation of neuronal [Na^+]i
CCC[C@@H](C)[C@H](O)[C@H](C)[C@H]1OC(=O)[C@H]([C@@H](C)O)NC(=O)[C@H](C(C)C)OC(=O)[C@H](C)[C@H](O)[C@H]([C@@H](C)CC)NC(=O)[C@@]2(C)CSC(=N2)[C@@]2(C)CSC(=N2)c2csc(n2)C[C@H](OC)[C@@H]1C [hoiamide A],elevation of neuronal [Na+]i / sodium influx,[4],"rapid and concentration-dependent elevation of neuronal [Na^+]i; also recorded: VGSC activator; also recorded: maximum sodium influx that was less than that of the full agonist, batrachotoxin"
same,"maximum response, elevation of neuronal [Na+]i",[4],less than 20 mM
same,relative efficacy for elevation of neuronal [Na+]i,[4],0.38
same,type of agonism at neurotoxin site 2 on VGSCs,[4],partial agonist at neurotoxin site 2; also recorded: partial agonism at the neurotoxin site 2 on VGSCs
same,pEC50,[4]; read-out: EC50 for hoiamide-induced sodium influx,5.64
same,inhibition of [3H]BTX specific binding,[6],concentration-dependent inhibition of [^3H]BTX specific binding; also recorded: inhibit the specific binding of [^3H]BTX to VGSCs
same,pIC50,"[6]; read-out: IC50, inhibition of [3H]batrachotoxin binding",7.03
same,change of hoiamide A EC50 value by modulator,[3],without altering the hoiamide A EC50 value; also recorded: no corresponding effect on the hoiamide A EC50 value
same,"maximum response of hoiamide A-induced sodium influx, AUC",[3],89.9 fluorescence x min and 141.4 fluorescence x min and 143.4 fluorescence x min
same,effect on batrachotoxin-induced sodium influx (SBFI AUC),[7],concentration-dependent reduction in batrachotoxin-induced sodium influx; also recorded: reversal of batrachotoxin (30 nM)-induced elevation of neuronal [Na^+]i
same,pIC50,[8],7.32
same,cytotoxicity to cancer cells,[9],modest cytotoxicity
COc1ccc(C(=O)O[C@H]2CC[C@@]3(C)[C@@H]4CC[C@H]5[C@]6(O)C[C@H](O)[C@@]7(O)[C@@H](CN8C[C@@H](C)CC[C@H]8[C@@]7(C)O)[C@]6(O)C[C@@]53O[C@]24O)cc1OC [veratridine],inhibition of [3H]BTX specific binding,[6],much less potent than hoiamide A; also recorded: inhibit the specific binding of [^3H]BTX to VGSCs
same,pIC50,"[6]; read-out: IC50, inhibition of [3H]BTX specific binding",4.48
CC1(C)[C@H](C(=O)O[C@H](C#N)c2cccc(Oc3ccccc3)c2)[C@@H]1C=C(Br)Br [deltamethrin],sodium influx when given alone,[4],inactive alone
same,effect on maximum response of hoiamide A-induced sodium influx,[3],significantly increased the maximum response; also recorded: enhance hoiamide A-induced elevation of neuronal [Na^+]i
same,effect on [3H]BTX specific binding (allosteric),[2],dramatically increased
NS(=O)(=O)c1cccc2c1c([N+](=O)[O-])cc1nc(O)c(O)nc12 [NBQX],effect on hoiamide A-induced Na+ influx,[3],no effect
